Results as given in paper PMC6235670, “An mTOR Signaling Modulator Suppressed Heterotopic Ossification of Fibrodysplasia Ossificans Progressiva” (Stem Cell Reports, 2018).

Legend:
FOP-iMSCs = assay: 2D chondrogenic induction of FOP-iMSCs with activin A (GAG, Alcian blue); type: cell-based, human; settings: activin A, 7 days
BMP signaling (BRE-Luc) = assay: BRE-Luc reporter assay in FOP-iMSCs; type: cell-based, human; settings: activin A and compounds for 16 hr
Protocol: (§1) FOP-iMSCs transiently transfected with BRE-Luc (A) or CAGA-Luc (B) with CMV-Renilla were stimulated with activin A and compounds for 16 hr (A) or 3 hr (B). […] One day after siRNA transfection, chondrogenic induction with activin A was initiated, and after 7 days the cells were harvested. […] FOP-iMSCs cultured with 10% FBS were treated with 100 nM rapamycin (Rapa) or TAK 165 (TAK) for 2 hr, and the cells were harvested. […] 1 μM TAK, 1 μM CP (CP-724714, another selective ERBB2 inhibitor), or 10 nM Rapa were applied in the experiments.

[1] = system: BMP-7-induced HO model mice (C57BL/6); assay: BMP-7-induced HO model mice
Description: (§2) MTOR s604 […]tt […]at […]
(§3) For X- ray images, mice were anesthetized with isoflurane (5% for induction, 2-3% for maintenance, Abbvie), immobilized and X-rayed using µFX-1000 (Fujifilm) or DX-50 (Faxitron Bioptics). µCT images were scanned using X-ray CT systems (inspeXio SMX-100CT, Shimadzu) and analyzed with TRI/3D-BON software (Ratoc System Engineering) according to the manufacturer's instructions. Four weeks after injection, the injected sites were harvested, fixed with 4% paraformaldehyde for 24 h, embedded in paraffin, and sectioned and stained […]
(§4) BMP-7-induced HO model mice. BMP -7 (2 µ g/mouse) was injected into the right gastrocnemius muscle of C57BL/6NJcl mice (6-8 weeks, male, CLEA Japan), and compounds were administered once a day, five times a week (intraperitoneal administration). Mice were analyzed 2 weeks after injection. […]

BMP type I receptors = system: BMP type I receptors; set-up: method as in Lewis and Prywes, 2013; settings: ref Lewis and Prywes, 2013; cited from earlier work
ATDC5/FOP-ACVR1 cells = assay: ALP assay (HTS and dose-response) in ATDC5/FOP-ACVR1; type: cell-based, mouse; settings: Mus musculus, 72 h, read-out: IC50 (ALP assay)
Protocol: ATDC5/FOP-ACVR1 cells were plated in 96-well white plates (2,000 cells/well/40 μL, Corning) in DMEM/F-12 supplemented with 5% (v/v) FBS. Two hours after incubation at 37°C under 5% CO2, 10 μL of test compounds (final 1 μM) was added, and the assay plates were incubated at 37°C under 5% CO2. After 3 days of incubation, ALP activity was measured using an Amplite Colorimetric Alkaline Phosphatase Assay Kit (AAT Bioquest) according to the manufacturer's protocol.
Generation of ATDC5 stably expressing ACVR1. WT - or FOP-ACVR1 was inserted into doxycycline (Dox)- […]
(KW111/WT-ACVR1 or KW111/FOP-ACVR1). KW111/WT-ACVR1 or KW111/FOP-ACVR1 and PBaseII […]
FuGeneHD® (Promega) according to the manufacturer’s protocol, and the neomycin- resistant population (500 µg/mL) was selected. […]
HTS campaign and follow-up screens. […] After 3 days incubation, Alkaline Phosphatase activity (ALP) or AlamarBlue activity was measured using Amplite™ Colorimetric Alkaline Phosphatase Assay Kit (AAT Bioquest) or alamarBlue® Cell Viability Reagent (Thermo Fisher Scientific) according to the manufacturer’s protocol, respectively. […]
was measured on POWERSCAN4 (DS Pharma Biomedical) or EnVision® Multilabel Reader (PerkinElmer).
Inhibitory effects of the screened compounds are given as percent inhibition, which was calculated using the following equation: (1-([Abs of compound] - [Abs of Min])/([Abs of Max] - [Abs of Min]))× 100, where [Abs of Max] and [Abs of Min] are the mean Abs of DMSO control and 1 µM DMH-1, respectively. The Z’ factor, which is widely used as a measure of the assay quality of each plate, was calculated using the following equation: Z’ factor = 1 - 3 × ([SD of Max] + [SD of Min])/([Abs of Max] - [Abs of Min]) (SI Appendix, Fig.
The S/B (signal-to-background) ratio was calculated using the following equation: ([Abs of Max]/[Abs of Min]) (SI Appendix, Fig. S3B). […]

mTOR signaling (p-S6) [2] = assay: p-S6 western blotting during chondrogenic induction of FOP-iMSCs with activin A; type: cell-based, human; settings: 1 µM
Protocol: Western blotting. SDS- PAGE and blotting with whole-cell lysates were performed by standard procedures.
Protein bands were detected with ECL Prime Western Blotting Detection Reagent (GE Healthcare) and visualized using BIO-RAD Molecular Imager® Chemi-DocTM XRS+ with Image LabTM software (Bio-Rad).
All data (relative intensity) were corrected by β-actin.
Antibodies for western blotting and immunostaining.
N ame Company Cat. No Concentration
Human Activin RIA/ALK-2 Antibody R&D Systems) AF637 1:100
Anti-human Vimentin antibody Abcam ab16700 1:40
Collagen I Antibody Novus NB600- 1:100
Anti-rabbit IgG, HRP-linked Antibody Cell Signaling #7074 1:10000 […]
2nd Goat anti-Rabbit IgG (H+L) Secondary Antibody, Invitrogen A-11008 1:100 antibody Alexa Fluor® 488 conjugate
Goat anti-Rabbit IgG (H+L) Secondary Antibody, Invitrogen A-21428 1:500

[3] = system: TGF-β signaling (CAGA-Luc); assay: CAGA-Luc reporter assay in FOP-iMSCs; type: cell-based, human; settings: activin A and compounds for 3 hr
Protocol: as §1

[4] = system: NOD/SCID mice transplanted with FOP-iMSCs
Description: as §2
as §3, with “instructions.” for “instructions. Four weeks after injection, the injected sites were harvested, fixed with 4% paraformaldehyde for 24 h, embedded in paraffin, and sectioned and stained”
Activin-A-induced HO model transplanted with FOP-iMSCs. FOP- (right leg) and resFOP-iMSCs (left leg) (4 x 10^6 cells, respectively) were transplanted into the gastrocnemius muscle of NOD/ShiJic-scid Jcl (NOD/SCID) mice (8 weeks, male, CLEA Japan) with C3H -DoxOn-hINHBA (5 x 10^5 cells), which can continuously expose Activin-A to the transplanted iMSCs in vivo ( Hino et al., 2015) . In the Dox-induced group, 1 mg/mL Dox (Sigma-Aldrich) was administered via drinking water with 10 mg/mL sucrose (Nacalai Tesque) for two weeks after transplantation. Compounds were intraperitoneally administered once a day, five times a week. Eight weeks after transplantation, the transplanted cells were harvested , fixed with 4% paraformaldehyde for 24 h, embedded in paraffin, and sectioned and stained with HE, von Kossa, Safranin O, human specific anti-Vimentin antibody and Collagen I antibody as previously described (Hino et al., 2015; Umeda et al., 2012; […]

C57BL/6 mice = assay: Growth plate histology and normal bone µCT in compound-administered BMP-7-injected mice; settings: 5 mg/kg i.p., 2 weeks
Protocol: as §2
System Engineering) according to the manufacturer's instructions. […]
as §4
Histological analysis of growth plates chondrocytes. Knee joints were obtained from BMP-7-injected and test compounds-administrated C57BL/6NJcl mice after 2 weeks treatment and fixed, paraffin-embedded, and sectioned and stained with Safranin O. The thickness of the proliferative and hypertrophic zones of the growth plate were measured using ImageJ software on images obtained using a Keyence microscope (Keyence A merica). The proliferative zone was defined as the region with flat chondrocytes stacked in longitudinal columns, and the hypertrophic zone as the region where chondrocytes are enlarged in size and form clusters.
Normal bone µCT. The left legs of mice were obtained from BMP -7-injected and test -compounds administrated C57BL/6NJcl mice after 2 weeks treatment. The region of interest (ROI) included the femur- tibia (entire femur in addition to the part of tibia above tibia/fibular junction). […]
Tests of side effects of direct and indirect mTOR inhibitors. Related

[5] = system: healthy control iPSC (414C2)-derived iMSCs; assay: Wound healing assay; settings: 10 nM rapamycin or 1 µM TAK165, 24 h
mTOR signaling (p-S6) [6] = assay: p-S6 western blotting in FOP-iMSCs cultured with 10% FBS; type: cell-based, human; settings: 100 nM, 2 hr
Protocol: time point t = 24 h from t = 0 h, and relative cell migration was expressed as the ratio of the absolute cell migrations between the experimental and control groups by using CL-Quant software (Nikon Corp.).
Quantitative PCR analysis. Total RNA was purified with RNeasy Kit (Qiagen) and treated with DNase -one Kit (Qiagen) to remove genomic DNA. Total RNA (0.3 µg) was reverse transcribed for single-stranded cDNA using random primers and Superscript III reverse transcriptase (Thermo Fisher Scientific) according to the manufacturer’s instructions. Quantitative PCR was performed with Thunderbird SYBR qPCR Mix (TOYOBO) and analyzed with the StepOne real-time PCR system (Applied Biosystems). […]
Microarray experiments. 2D chondrogenic induction was performed in FOP-iMSCs stimulated with or without 100 ng/mL Activin-A, TAK 165, CP-724714 and Lapatinib. […] Raw CEL files were imported into GeneSpring GX 12.6.1 software (Agilent Technologies), and expression values were calculated with the RMA16 algorithm. […]
Protein bands were detected with ECL Prime Western Blotting Detection Reagent (GE Healthcare) and visualized using BIO-RAD Molecular Imager® Chemi-DocTM XRS+ with Image LabTM software (Bio-Rad). […]
GAG value. The GAG content was quantified in pellets with the Blyscan Glycosaminoglycan Assay Kit (Biocolor). The DNA content was quantified using PicoGreen dsDNA Quantitation Kit (Thermo Fisher […]

Row | SMILES | inhibition of glycosaminoglycan (GAG) production (FOP-iMSCs; 1 μM) | suppression of chondrogenic induction (GAG), dose dependence (FOP-iMSCs) | BRE-Luc (BMP-specific luciferase reporter) (BMP signaling (BRE-Luc)) | body weight change compared to vehicle group ([1]; i.p. for 2 weeks, n=5) | BMP-7-induced HO (heterotopic bone volume) ([1]; i.p. once daily 5 times a week for 2 weeks) | # of HO (> 20 mm3): number of mice harboring HO ([1]; i.p. once daily 5 times a week for 2 weeks, N = 5) | inhibition of BMP type I receptors (BMP type I receptors) | IC50 (ATDC5/FOP-ACVR1 cells) | p-S6 levels from 2 hr after treatment (mTOR signaling (p-S6) [2]) | CAGA-Luc (TGF-β-responsive luciferase reporter) [3] | body weight change compared with vehicle group ([4]; 5 mg/kg i.p.) | hypertrophic chondrocytes and von Kossa- and COL1-positive bone regions ([4]; 5 mg/kg i.p.) | HO derived from FOP-iMSCs (heterotopic bone volume) ([4]; 5 mg/kg i.p. once daily, five times a week, 8 weeks after transplantation) | Bone Mineral Density (normal bone µCT) vs vehicle (C57BL/6 mice) | Bone volume (normal bone µCT, femur-tibia) vs vehicle (C57BL/6 mice) | Hypertrophic zone thickness of growth plate vs vehicle (C57BL/6 mice) | Proliferative zone thickness of growth plate vs vehicle (C57BL/6 mice) | Relative cell migration (wound healing assay) vs DMSO [5] | p-S6 levels (direct mTOR inhibition) (mTOR signaling (p-S6) [6])
1 | CN1CCN(CCOc2cc(OC3CCOCC3)c3c(Nc4c(Cl)ccc5c4OCO5)ncnc3c2)CC1 [AZD0530, saracatinib] | potent inhibition | dose-dependent | inhibited | No significant differences | suppressed | 1/5 | inhibited | 4 nM | significantly inhibited | inhibited | No significant differences | fewer | significantly suppressed | – | – | – | – | – | –
2 | CO[C@H]1C[C@@H]2CC[C@@H](C)[C@@](O)(O2)C(=O)C(=O)N2CCCC[C@H]2C(=O)O[C@H]([C@H](C)C[C@@H]2CC[C@@H](O)[C@H](OC)C2)CC(=O)[C@H](C)/C=C(\C)[C@@H](O)[C@@H](OC)C(=O)[C@H](C)C[C@H](C)/C=C/C=C/C=C/1C [rapamycin] | – | – | – | – | – | – | – | – | – | – | – | – | – | n.s. | n.s. | n.s. | n.s. | n.s. | decreased
